# Measured values: paper PMC4811302, “Human β-defensin 3 contains an oncolytic motif that binds PI(4,5)P2 to mediate tumour cell permeabilisation” (Oncotarget, 2015)
# Where no end group is shown, it is not given here.
# Legend:
# [1] = tested on: plasma membrane PI(4,5)P2 of U937 cells; experiment: Anti-PI(4,5)P2 antibody blocking assay; format: cell-based, human; settings: 15 μM defensins 30 min or 10 mM neomycin 3 h; cells fixed, saponin-lysed, FITC-conjugated anti-PI(4,5)P2 IgM, flow cytometry
# Method: U937 cells at 1×10^6 cells/mL were treated with 10 mM neomycin for 3 h and/or 15 μM defensins for 30 min in serum-free RPMI 1640 medium containing 0.1% BSA, followed by 20 min fixation with 2% (v/w) paraformaldehyde (Sigma-Aldrich), 10 min lysis with 0.5% (w/v) saponin (Sigma-Aldrich), and then 30 min blocking with 3% (w/v) BSA. Three 5-min centrifugal washes with PBS at 500 g were also included between steps. FITC-conjugated mouse anti-PI(4,5)P2 IgM (Echelon Biosciences) or IgM control (GeneTex, Irvine, CA) was subsequently used at 10 μg/mL for 30 min prior to flow cytometry analysis.
# HeLa cells [2] = experiment: PI-positive counting of GFP-PH versus GFP only transfected cells by CLSM; format: cell-based, human; settings: 15 μM HBD-3, confocal imaging over 30 min, five independent experiments
# Method: Live imaging was performed on a Zeiss LSM-780 confocal microscope using a 63× oil immersion objective in a 37°C incubator with 5% CO2. Adherent HeLa cells were cultured overnight on coverslips while suspension U937 cells were immobilised onto 0.01% (w/v) poly-L-lysine-coated coverslips. Both cell types were prepared in serum-free RPMI 1640 medium containing 0.1% (w/v) BSA and 2 μg/mL PI. HBD-3 or BODIPY FL EDA-labeled HBD-3 was added directly to the imaging chamber to final concentration of 15 μM, via a capillary tube. In certain experiments, prior to imaging, cells were pre-stained with the membrane dye PKH67 as per manufacturer's instructions (Sigma-Aldrich) or transfected with expression vectors carrying GFP only or GFP-tagged Pleckstrin homology domain of phospholipase C-delta 1 (GFP-PH(PLCδ1)) (kindly provided by Christina Mitchell, Monash University, Australia), using Lipofectamine 3000 reagent (Invitrogen) as per manufacturer's instructions. For CLSM involving transfections, images were taken as 4×4 tiles over 30 min, and the resultant data for GFP and GFP-PH transfected cells were analysed by counting PI-positive cells.
# [3] = tested on: tumour lines HeLa, HL-60, Jukat, U937 and PC3; experiment: Tetrazolium-based cell viability assay, tumour lines; parameters: species or system human; settings: range over HeLa, HL-60, Jurkat, 48 h, MTT (adherent) or MTS/PMS (suspension), estimated, three independent experiments
# Method: (§1) Human epithelial cervical cancer (HeLa), leukemic monocyte lymphoma (U937), prostate cancer (PC3), promyelocytic leukemia (HL-60), leukemic T cell lymphoblast (Jurkat) cells were cultured in RPMI-1640 medium supplemented with 5–10% (v/v) fetal calf serum (FCS), 100 U/mL penicillin and 100 μg/mL streptomycin (Invitrogen, Carlsbad, CA). Human umbilical vein […] cell (HUVEC) cells were cultured in M199 medium (Invitrogen) supplemented with 20% (v/v) FCS, 40 μg/mL gentamicin, 4 μg/mL endothelial cell growth factor, 4 μg/mL L-glutamine and 135 μg/mL heparin, in 0.1% (w/v) gelatin-coated Corning CELLBIND flask (Corning Life Sciences, Acton, MA). […]
# (§2) Different concentrations of HBD-3 were added to cells seeded in 96-well plates in appropriate complete medium. […] After 48 h, cell viability was determined using 3-(4,5-dimethylthiazol-2-yl)-2,5-diphenyltetrazolium bromide (MTT) (Sigma-Aldrich, MO) for adherent cells (HeLa, PC3, HUVEC, AHDF, CASMC) or 3-(4,5-dimethylthiazol-2-yl)-5-(3-carboxymethoxyphenyl)-2-(4-sulfophenyl)-2H-tetrazolium (MTS) (Promega, Madison, WI) coupled with phenzine methosulfate (PMS) (Promega) for suspension cells (U937, HL-60, Jurkat) prior to absorbance measurement at 570 nm and […], respectively. Absorbance readings of untreated control wells was designated as 100% cell viability.
# [4] = tested on: Primary cells, HUVEC, AHDF and CASMC; experiment: Tetrazolium-based cell viability assay, primary cells; parameters: species or system human; settings: range over HUVEC, 48 h, MTT, estimated, three independent experiments
# Method: as §1, §2
# [5] = Protein-lipid overlay assay, PIP strip; format: binding; settings: 1 μg/mL protein, immunodetection, densitometry
# Method: Protein-lipid overlay assays using Membrane strip™ or PIP strip™ (Echelon Biosciences, Salt Lake City, UT) were performed using 1 μg/mL proteins as described previously. Lipid binding was immunodetected using a combination of rabbit anti-HBD-3 IgG (50 μg/mL) and horseradish peroxidase-conjugated donkey-anti-rabbit Ig (10 μg/mL) antibodies. Chemiluminescence signal intensity was quantitated by densitometry analysis using ImageJ (National Institutes of Health, Bethesda, MD; http://imagej.nih.gov/ij/).
# [6] = ATP-encapsulated liposome leakage assay, PC only; settings: bioluminescence, normalised to HEPES and Triton X-100
# Method: Liposomes were generated as described previously using natural PI(4,5)P2 (porcine brain, in chloroform:methanol:water at 20:9:1 molar ratio) and PC (chicken egg, in chloroform) purchased from Avanti Polar Lipids. PC only or PC:PI(4,5)P2 (95:5 molar ratio) solutions were dried under a stream of nitrogen gas followed by overnight vacuum-drying. The lipid films were rehydrated to a final concentration of 5 mg/mL in 20 mM HEPES (pH 7.2) containing 5 mg/mL adenosine-5-triphosphate disodium salt (ATP; Sigma-Aldrich) at 37°C for 1 h. After three subsequent cycles of freezing (liquid nitrogen) and thawing (25°C), multilamellar liposomes were extruded 15–20 times through a mini-extruder (Avanti Polar Lipids). Free ATP was removed by three centrifugal washes with 20 mM HEPES at 16,500 g prior to the ATP release assay. Liposomes treated with 1% Triton X-100 were included as positive control and assigned as total lysis, whereas HEPES only control served as background reading. The level of ATP release at a particular time point was determined by quotient of the corrected reading (after subtracting background) of the sample at that time point and corrected reading of total lysis, as per the following equation: % Lysist=Samplet−HEPESt/Triton X−HEPES×100
# HeLa cells [7] = experiment: ATP bioluminescence release assay, HeLa; format: cell-based, human; settings: HBD-3 titrations, bioluminescence for 30 min, PBS with 0.1% BSA, concentration-dependent
# Method: (§3) ATP release assay was conducted using an ATP bioluminescence assay kit (Roche Diagnostics, Mannheim, Germany). U937 and HeLa cells were suspended at 1×10^6 cells/mL in PBS containing 0.1% (w/v) BSA, and mixed with luciferase/luciferin reagent at a ratio of 4:5. The mixture was added to HBD-3 samples and the level of ATP release measured immediately as bioluminescence emission signal intensity for 30 min with 30 s intervals.
# U937 cells = experiment: ATP bioluminescence release assay, U937; format: cell-based, human; settings: HBD-3 titrations, bioluminescence for 30 min, PBS with 0.1% BSA, concentration-dependent
# Method: as §3
substance,measurement,setting,value
"human β-defensin 3 (GIINTLQKYYCRVRGGRCAVLSCLPKEEQIGKCSTRGRKCCRRKK; not fully specified; cysteine pairing not given here; UniProt P81534 23-67, looked up) [HBD-3, human β-defensin 3, cationic antimicrobial peptide, recombinantly expressed in P. pastoris]","blocking of anti-PI(4,5)P2 antibody binding (overall fluorescence intensity vs untreated control)",[1],significant decrease of overall fluorescence intensity
same,fold lower number of PI-positive cells in GFP-PH(PLCδ) versus GFP only-transfected cells,HeLa cells [2],2.5 fold
same,IC50,[3],8 to 20 µM
same,IC50,[4],30 to 65 µM
same,binding to phosphoinositides/lipids on PIP strip,[5],"most strongly, PA and all phosphoinositides"
same,ATP release from ATP-encapsulated liposomes,[6],minimally induced ATP release
same,cytoplasmic ATP release,HeLa cells [7],rapidly released
same,cytoplasmic ATP release,U937 cells,rapidly released
